For one series, the target named is T1, IRAK4 (Homo sapiens, UniProt Q9NWZ3).
T1 construct: with 0.1 nM IRAK4, 1.6 μM of biotinylated peptide substrate and 10 μM ATP
T1 sequence (Q9NWZ3 1-460): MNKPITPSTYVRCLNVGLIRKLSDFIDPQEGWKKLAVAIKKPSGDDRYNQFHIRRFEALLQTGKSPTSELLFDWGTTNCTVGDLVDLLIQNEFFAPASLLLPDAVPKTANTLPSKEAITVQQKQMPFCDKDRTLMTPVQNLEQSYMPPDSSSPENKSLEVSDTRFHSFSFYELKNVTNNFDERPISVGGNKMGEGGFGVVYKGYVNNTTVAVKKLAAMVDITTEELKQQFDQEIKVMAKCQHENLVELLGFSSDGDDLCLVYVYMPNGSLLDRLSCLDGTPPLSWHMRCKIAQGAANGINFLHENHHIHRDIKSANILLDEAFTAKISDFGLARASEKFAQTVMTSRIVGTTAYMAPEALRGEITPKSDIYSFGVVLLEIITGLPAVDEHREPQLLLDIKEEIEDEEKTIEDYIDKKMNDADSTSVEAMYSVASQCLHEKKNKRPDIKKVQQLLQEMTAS
Kind of series: IRAK4 MSD Biochemical Assay (1 mM ATP, 2 h). As to conditions: room temperature, read-out: IRAK4 MSD Biochemical Assay (1 mM ATP, 2 h) IC50. As to the method: The 2-hour 10 μM ATP Biochemical Assay employs a MesoScale Detection (MSD) format.
The activity is quenched with 11 μl of 70 mM EDTA, pH 8.
To detect the phosphorylated biotinylated peptide substrate, 30 μl of the quenched reaction mixture is added to equivalent wells of a 384 well streptavidin coated MesoScale plate (Meso Scale Discovery #L21SA-1). After a 1 hour incubation of the plate for 1 hour at room temperature with gentle mixing, the plate wells are washed 3 times with 50 mM Tris, pH 7.5, 150 mM NaCl, 0.02% Tween-20.
A 25 μl volume of 1:500 anti-P-Threonine Rabbit polyclonal Antibody plus 1:500 Goat-anti-Rabbit Sulfo Tag Antibody (Meso Scale Discovery R32AB-1) in 50 mM Tris, pH 7.5, 150 mM NaCl, 0.02% Tween-20 plus 2% BSA is then added to each well. After a 1-hour incubation of the plate for 1 hour at room temperature with gentle mixing, the plate wells are washed, 3 times with 50 mM Tris, pH 7.5, 150 mM NaCl, 0.02% Tween-20. A 40 μl volume of 2×MSD Read Buffer (Meso Scale Discovery R92TC-1) is added to each well, and the plate is read immediately in an MSD Plate Reader (Meso Scale Discovery).
The 2-hour 1 mM ATP IRAK4 Biochemical assay was performed as described above, but with […] IRAK4 and 1 mM ATP.

The target in another series is T2, MDR1 (P-gp) (Homo sapiens, UniProt P08183).
T2 construct: host or cells: MDCK cells
Kind of series: MDR1-MDCK assay (efflux ratio). The format is in vitro ADME. As to conditions: human, MDCK-MDR1, 1 μM compound, 120 minutes incubation; read-out: MDR1-MDCK Efflux Ratio; (B-A/A-B). As to the method: • The assay makes use of human MDR1 transfected MDCK cells (NIH cell line in-licensed from Absorption Systems) • The compounds are tested at 1 μM concentration prepared in transport buffer (Hank's balanced salt solution with HEPES) • MDR1-MDCK cell are cultured for 7 days in 96 well transwell insert plates (Corning). Insert plates are washed before the assay and TEER (Trans epithelial electric resistance) is measured. • These plates are loaded with test compound solution 85 μL for A-B transport and 260 μL for B-A transport in the respective donor compartment.
Mass balance=100×((Vr×Cr^final)+(Vd×Cd^final))/(Vd×CE) • Where: • dCr/dt is the cumulative concentration in the receiver compartment versus time in μM s^−1 • Vr is the volume of the receiver compartment in cm^3 • Vd is the volume of the donor compartment in cm^3 • A is the area of the insert (0.143 cm^2 for 96-well insert) • CE is the estimated experimental concentration (Time=0) of the dosing solution • Cr^final is the concentration of the receiver at the end of the incubation period • Cd^final is the concentration of the donor at the end of the incubation period.

Structures can show the parent of a compound that is named as a salt.

T2 sequence (P08183 whole entry): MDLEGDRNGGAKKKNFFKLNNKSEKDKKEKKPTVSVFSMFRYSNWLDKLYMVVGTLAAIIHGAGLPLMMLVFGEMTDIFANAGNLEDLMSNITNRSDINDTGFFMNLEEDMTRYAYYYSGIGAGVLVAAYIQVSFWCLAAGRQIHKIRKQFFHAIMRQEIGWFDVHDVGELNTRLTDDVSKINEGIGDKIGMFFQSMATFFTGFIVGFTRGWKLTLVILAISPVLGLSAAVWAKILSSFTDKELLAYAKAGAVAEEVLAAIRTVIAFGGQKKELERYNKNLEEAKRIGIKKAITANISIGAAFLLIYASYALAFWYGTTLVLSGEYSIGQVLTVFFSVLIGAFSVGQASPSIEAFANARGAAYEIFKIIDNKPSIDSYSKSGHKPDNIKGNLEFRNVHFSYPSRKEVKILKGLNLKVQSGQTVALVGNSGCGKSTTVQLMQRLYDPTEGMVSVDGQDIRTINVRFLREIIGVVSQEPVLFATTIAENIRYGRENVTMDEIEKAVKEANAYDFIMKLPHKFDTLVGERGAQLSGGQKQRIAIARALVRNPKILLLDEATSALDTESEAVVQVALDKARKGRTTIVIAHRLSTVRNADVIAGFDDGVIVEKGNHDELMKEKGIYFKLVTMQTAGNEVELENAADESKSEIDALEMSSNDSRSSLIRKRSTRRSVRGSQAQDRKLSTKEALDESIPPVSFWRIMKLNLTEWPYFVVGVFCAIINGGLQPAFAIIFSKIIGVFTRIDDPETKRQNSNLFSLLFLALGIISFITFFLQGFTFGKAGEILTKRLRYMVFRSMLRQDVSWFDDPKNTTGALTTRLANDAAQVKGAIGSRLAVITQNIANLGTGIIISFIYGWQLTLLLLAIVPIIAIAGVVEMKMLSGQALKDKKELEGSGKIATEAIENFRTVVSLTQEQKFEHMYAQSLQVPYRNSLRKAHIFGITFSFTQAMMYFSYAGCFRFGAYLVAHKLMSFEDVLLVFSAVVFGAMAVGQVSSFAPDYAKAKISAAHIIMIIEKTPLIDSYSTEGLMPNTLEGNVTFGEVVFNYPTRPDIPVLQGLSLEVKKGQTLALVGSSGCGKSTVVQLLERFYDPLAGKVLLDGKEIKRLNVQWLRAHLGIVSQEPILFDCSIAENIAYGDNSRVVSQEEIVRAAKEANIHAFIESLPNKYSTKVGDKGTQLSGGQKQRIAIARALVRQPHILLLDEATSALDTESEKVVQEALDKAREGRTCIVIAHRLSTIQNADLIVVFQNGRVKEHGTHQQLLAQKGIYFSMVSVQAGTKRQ

In the case of `CC(C)Oc1cc2nn(C34CCC(C)(C3)OC4)cc2cc1C(=O)Nc1ccn(C)n1` (stereo not shown) [Example 101, 6-Isopropoxy-N-(1-methyl-1H-pyrazol-3-yl)-2-(1-methyl-2-oxabicyclo[2.2.1]heptan-4-yl)-2H-indazole-5-carboxamide], the IC50 on IRAK4 is 4.1 nM. Further, the efflux ratio at 120 min, 1 μM on MDR1 (P-gp) stood at 1.5.
Taken in the same sequence, the figures for `COc1ncccc1NC(=O)c1cc2cn(C3CCOCC3)nc2cc1OC(C)C` [Example 69, 6-Isopropoxy-N-(2-methoxypyridin-3-yl)-2-(tetrahydro-2H-pyran-4-yl)-2H-indazole-5-carboxamide] were 1 nM and 1.
In the case of `O=C(Nc1cccc(C(F)F)n1)c1cc2cn(CC3CCOC3)nc2cn1` (stereo not shown) [Example 8, N-(6-(difluoromethyl)pyridin-2-yl)-2-((tetrahydrofuran-3-yl)methyl)-2H-pyrazolo[3,4-c]pyridine-5-carboxamide Trifluoroacetate], at IRAK4, the IC50 came to 275 nM. The efflux ratio at 120 min, 1 μM on MDR1 (P-gp) came to 0.6.
Taken in the same sequence, the figures for `O=C(Nc1cccc(C(F)F)n1)c1cc2cn(C3CCOCC3)nc2cc1OC1CCOC1` (stereo not shown) [Example 75, N-(6-(difluoromethyl)pyridin-2-yl)-2-(tetrahydro-2H-pyran-4-yl)-6-((tetrahydrofuran-3-yl)oxy)-2H-indazole-5-carboxamide] were 1.1 nM and 2.9.
Regarding `Cc1cnc2c(NC(=O)c3cc4cn(C[C@@H]5CCOC5)nc4nc3OC3CCC3)cnn2c1` (single isomer, unassigned) [Example 123], at IRAK4, the IC50 came to 0.5 nM. Further, the efflux ratio at 120 min, 1 μM on MDR1 (P-gp) came to 5.9.
Taken in the same sequence, the figures for `CCOc1cc2nn(CCC(C)(C)O)cc2cc1C(=O)Nc1cccc(C(F)F)n1` [Example 31, N-(6-(difluoromethyl)pyridin-2-yl)-6-ethoxy-2-(3-hydroxy-3-methylbutyl)-2H-indazole-5-carboxamide] were 0.7 nM and 1.9.
With `Cn1cccc(NC(=O)c2cc3cn(C[C@H]4CCOC4)nc3nc2OC2CCCC2)c1=O` (single isomer, unassigned) [Example 114], the IC50 at IRAK4 amounted to 1.8 nM. At MDR1 (P-gp), the efflux ratio at 120 min, 1 μM was 1.5.
Taken in the same sequence, the figures for `CC(C)Oc1cc2nn([C@H]3CCCOC3)cc2cc1C(=O)Nc1cccc(C(F)F)n1` (single isomer, unassigned) [Example 42] were 0.4 nM and 0.9.
Taken in the same sequence, the figures for `CC(C)Oc1nc2nn(CC3CCOC3)cc2cc1C(=O)Nc1ccccn1` (stereo not shown) [Example 77, 6-Isopropoxy-N-(pyridin-2-yl)-2-((tetrahydrofuran-3-yl)methyl)-2H-pyrazolo[3,4-b]pyridine-5-carboxamide] were 13.6 nM and 1.9.
On the same counts, the results for `COc1cccc(NC(=O)c2cc3cn(C4CCOC4)nc3cc2OC)n1.O=C(O)C(F)(F)F` (stereo not shown) [Example 4, 6-Methoxy-N-(6-methoxypyridin-2-yl)-2-(tetrahydrofuran-3-yl)-2H-indazole-5-carboxamide trifluoroacetate] are 3380 nM and 0.4.
Turning to `CC(C)Oc1cc2nn(C3COC3)cc2cc1C(=O)Nc1cccc(C(F)F)n1` [Example 30, N-(6-(difluoromethyl)pyridin-2-yl)-6-isopropoxy-2-(oxetan-3-yl)-2H-indazole-5-carboxamide], the IC50 on IRAK4 amounted to 6.2 nM. At MDR1 (P-gp), the efflux ratio at 120 min, 1 μM was found to be 0.6.
Taken in the same sequence, the figures for `COc1cc2nn(C34COC(C)(C3)C4)cc2cc1C(=O)Nc1cccc(C(F)F)n1` [Example 87, N-(6-(difluoromethyl)pyridin-2-yl)-6-methoxy-2-(1-methyl-2-oxabicyclo[2.1.1]hexan-4-yl)-2H-indazole-5-carboxamide trifluoroacetate] were 2.4 nM and 0.7.
In the case of `COCCCn1cc2cc(C(=O)Nc3cccc(C(F)F)n3)c(OC(C)C)nc2n1.Cl` [Example 62, N-(6-(difluoromethyl)pyridin-2-yl)-6-isopropoxy-2-(3-methoxsypropyl)-2H-pyrazolo[3,4-b]pyridine-5-carboxamide hydrochloride], the IC50 at IRAK4 was determined as 0.6 nM. Besides, the efflux ratio at 120 min, 1 μM at MDR1 (P-gp) is 1.7.
On the same counts, the results for `COc1cccc(NC(=O)c2cc3cn(C[C@@H]4CCOC4)nc3cc2OC)n1` (single isomer, unassigned) [Example 22] are 9.2 nM and 0.6.
Consider `COc1cccc(NC(=O)c2cc3cn(C45COC(C)(C4)C5)nc3cc2OC(C)C)n1` [Example 89, 6-Isopropoxy-N-(6-methoxypyridin-2-yl)-2-(1-methyl-2-oxabicyclo[2.1.1]hexan-4-yl)-2H-indazole-5-carboxamide trifluoroacetae], for which the IC50 on IRAK4 stood at 1 nM. The efflux ratio at 120 min, 1 μM on MDR1 (P-gp) came to 0.6.
As for `CC(C)Oc1nc2nn(CC3CCOC3)cc2cc1C(=O)Nc1ccn(C)n1` (stereo not shown) [Example 79, 6-Isopropoxy-N-(1-methyl-1H-pyrazol-3-yl)-2-((tetrahydrofuran-3-yl)methyl)-2H-pyrazolo[3,4-b]pyridine-5-carboxamide], the IC50 at IRAK4 is 10.6 nM. Moreover, the efflux ratio at 120 min, 1 μM on MDR1 (P-gp) amounted to 9.4.
In the case of `CC(C)Oc1cc2nn(C3COC3)cc2cc1C(=O)Nc1cnn2cccnc12` [Example 38, 6-Isopropoxy-2-(oxetan-3-yl)-N-(pyrazolo[1,5-a]pyrimidin-3-yl)-2H-indazole-5-carboxamide], the IC50 at IRAK4 was determined as 11.2 nM. In addition, at MDR1 (P-gp), the efflux ratio at 120 min, 1 μM was 2.3.
Consider `CC(C)Oc1nc2nn([C@H]3CCCOC3)cc2cc1C(=O)Nc1cnn2cccnc12` (single isomer, unassigned) [Example 121], for which the IC50 on IRAK4 is 0.7 nM. Moreover, the efflux ratio at 120 min, 1 μM on MDR1 (P-gp) is 1.1.
On the same counts, the results for `CC(C)Oc1cc2nn(C3CCOCC3)cc2cc1C(=O)Nc1cccnc1OC(F)F.Cl` [Example 70, N-(2-(difluoromethoxy)pyridin-3-yl)-6-isopropoxy-2-(tetrahydro-2H-pyran-4-yl)-2H-indazole-5-carboxamide hydrochloride] are 8.7 nM and 1.1.
On to `COCCCn1cc2cc(C(=O)Nc3cccc(C(F)F)n3)c(OC)cc2n1.Cl` [Example 17, N-(6-(difluoromethyl)pyridin-2-yl)-6-methoxy-2-(3-methoxypropyl)-2H-indazole-5-carboxamide hydrochloride], for which the IC50 at IRAK4 worked out at 11.3 nM. In addition, the efflux ratio at 120 min, 1 μM on MDR1 (P-gp) was 0.4.
Taken in the same sequence, the figures for `COc1cc2nn(C3CCOCC3)cc2cc1C(=O)Nc1cccc(C(F)F)n1.Cl` [Example 24, N-(6-(difluoromethyl)pyridin-2-yl)-6-methoxy-2-(tetrahydro-2H-pyran-4-yl)-2H-indazole-5-carboxamide Hydrochloride] were 6.3 nM and 0.7.
For `CC(C)Oc1nc2nn(CC3CCOC3)cc2cc1C(=O)Nc1ccn(C(F)F)n1` (stereo not shown) [Example 80, N-(1-(difluoromethyl)-1H-pyrazol-3-yl)-6-isopropoxy-2-((tetrahydrofuran-3-yl)methyl)-2H-pyrazolo[3,4-b]pyridine-5-carboxamide], on IRAK4, the 50% inhibitory concentration (IC50) stood at 6.4 nM. Moreover, the efflux ratio at 120 min, 1 μM on MDR1 (P-gp) turned out to be 3.1.
On the same counts, the results for `COCCCn1cc2cc(C(=O)Nc3cccc(OC)n3)c(OC(C)C)nc2n1.Cl` [Example 61, 6-Isopropoxy-2-(3-methoxypropyl)-N-(6-methoxypyridin-2-yl)-2H-pyrazolo[3,4-b]pyridine-5-carboxamide hydrochloride] are 3.7 nM and 1.1.

By IC50 is commonly meant the concentration that inhibits the measured activity by half.

The record behind these values is patent US20230002361A1, “2H-INDAZOLE DERIVATIVES AND THEIR USE IN THE TREATMENT OF DISEASE” (BIOGEN MA INC., priority 2019, published 2023).
